Results: article PMC9027131, “Dual PI3K/Akt Inhibitors Bearing Coumarin-Thiazolidine Pharmacophores as Potential Apoptosis Inducers in MCF-7 Cells” (Pharmaceuticals, 2022)

Assays:
[1] = tested on: Cyclin D1, p-PI3K, p-Akt; experiment: Western blot in MCF-7 cells; type: cell-based, human; settings: MCF-7, IC50, 48 h, vs control untreated cells
From the text: Cyclin D1 activity is essential for the G1 to S phase transition. Moreover, the PI3K/Akt axis is crucial for cell growth and apoptosis. The effects of VIIb on Cyclin D1 and the PI3K/Akt pathway in MCF-7 cells was investigated adopting reported procedures. […] Herein, Western blot results confirmed our previous findings, highlighting the ability of the novel compound, VIIb, to inhibit the PI3K/Akt signaling pathway. […] Cyclin D1 is a proto-oncogene and a major regulator of cell cycle progression. In addition, Cyclin D1 overexpression has been linked to both breast tumorigenesis and tumor progression as well as to the development of endocrine resistance in breast cancer cells.
Whole-cell protein lysates obtained from both control as well as VIIb-treated (IC50 (µM), for 48 h) MCF-7 cells were resolved by SDS-PAGE, and then immunoblotting was conducted with antibodies against cyclin D, p-Akt, and p-PI3K compared to the housekeeping protein β-Actin.
Western blot analysis was conducted using the following primary antibodies: anti-p-Akt (1:5000; ab81283), anti-Cyclin D1 (1:1000; ab226977), anti-p-PI3K (1:1000; ab278545), and anti-beta-actin (1:1000; ab8227). Firstly, VIIb-treated and untreated cells were rinsed with PBS, and then cold lysis buffer was added to induce cell lysis. After centrifugation, the supernatants were collected, and harvested proteins were quantified by Bradford assay and then resolved on SDS-PAGE followed by electroblotting onto polyvinylidene fluoride membranes. Later, membrane blocking was conducted using 5% skimmed milk in 0.1% Tween-20 in PBS (PBST). Then membranes were incubated with the aforementioned primary antibodies at 4 °C. Following 12-h incubation, the membranes were soaked in PBST thrice followed by 1-h incubation with appropriate secondary antibodies. Antibodies were supplied from Abcam (Cambridge, UK). The signals were visualized with a chemiluminescence ECL kit (Perkin Elmer, Waltham, MA, USA) following the manufacturer’s instructions, and images were obtained using a Biorad Imager.

[2] = tested on: MCF-7 cells; experiment: MTT cytotoxicity assay in MCF-7 cells; type: cell-based, human; settings: Homo sapiens, MCF7, 48 h, means ± sd, n = 3
Protocol: The in vitro anticancer activity of the designed coumarin-thiosemicarbazones and coumarin-thiazolidine-4-one hybrids against MCF-7 cells was tested using the MTT assay, and 5-fluorouracil (5-FU) was used as the reference drug. The tested compounds were used in different concentrations, and cell survival was determined after incubation for 48 h as reported. The cytotoxic activity is represented in Table 1 as IC50 (µM) values.
MCF-7 breast cancer cell line (ATCC® HTB-22™) plus non-tumorigenic epithelial cell line (MCF 10, ATCC® CRL-10317™) were supplied from VACSERA (Cairo, Egypt) and cultured in Dulbecco’s Modified Eagle Medium (Invitrogen-Life Technologies, Carlsbad, CA, USA) with 1% antibiotic solution (streptomycin–penicillin) plus 10% fetal bovine serum (Hyclone) in a 5% (v/v) humidified CO2 incubator at 37 °C.
Firstly, cells were kept in a humidified atmosphere (37 °C, 24 h), and then incubated with serial concentrations of the tested compounds. After 48 h, the medium was aspirated, and then cells were incubated with 5% MTT solution (M-5655; Sigma Aldrich, St. Louis, MO USA) (200 µL/well, 2 h), allowing the dye to metabolize into the colored insoluble formazan complex that was then dissolved in the appropriate solubilization solution (M-8910) (200 µL/well), for 30 min with gentle mixing at room temperature. The UV absorbance was measured using a microplate reader (570 nm), and cell viability was determined with respect to untreated control cells. […] The values were means ± sd; n = 3.

[3] = tested on: MCF-7 cells; experiment: Cell cycle analysis by flow cytometry (propidium iodide); type: cell-based, human; settings: MCF-7, treated at IC50, 48 h
Protocol: VIIb-treated cells were subjected to cell cycle phase distribution analysis as well as apoptosis rates determination by flow cytometric analysis in MCF-7 cells, as reported.
Control and VIIb-treated (IC50 µM, 48 h) MCF-7 cells were harvested and then subjected to cell cycle analysis by flow cytometry.
(§1) Cell cycle analysis and apoptosis rates following VIIb treatment were investigated using a Propidium Iodide Flow Cytometry Kit (ab139418; Abcam, Cambridge, UK) and Annexin V-FITC apoptosis kit (Catalog: K101-25; BioVision Research Products, San Francisco, CA, USA), respectively, following the manufacturer’s instructions as stated by a previous study.

[4] = target: T1, PI3K-α (Homo sapiens, UniProt P42336); experiment: PI3Kα (p110α/p85) enzyme inhibition assay kit; type: biochemical; settings: means ± sd, n = 3; read-out: IC50 (µM) PI3K-α Isoform
T1 construct: purchased BPS Bioscience, Inc 79781
From the text: Accumulating evidence highlighted that PI3K signaling pathway upregulation is highly implicated in breast cancer development and disease progression as well as resistance to hormones and cytotoxic therapy. Therefore, it is essential to elucidate the effect of the novel compound, VIIb, on the PI3K/Akt signaling pathway by using in vitro PI3K class 1A enzyme inhibition assay conducted on PI3K-α and PI3K-γ isoforms as well as an Akt-1 enzyme inhibition assay. […] Furthermore, targeting the PI3K-γ isoform in breast cancer could contribute to enhancing the anti-tumor immunity.
The in vitro inhibition of PI3K and Akt kinase activities by VIIb was assessed using a PI3Kα (p110α/p85) assay kit (Catalog #79781; BPS Bioscience, Inc, San Diego, CA, USA), PI3Kγ (p110γ/PIK3R5) assay kit (Catalog #79803; BPS Bioscience, Inc, San Diego, CA, USA), and Akt Kinase Activity assay kit (ab139436; Abcam, Cambridge, UK) following the manufacturer’s instructions as described previously. The results were expressed as IC50 values using dose–response curves and linear regression equations.

[5] = tested on: MCF-7 cells; experiment: Annexin V-FITC/PI apoptosis assay by flow cytometry; type: cell-based, human
From the text: Remarkably, clinical oncology aims at developing novel targeted cancer therapies that could induce apoptosis in neoplastic cells to enhance their eradication. Since loss of apoptosis is closely related to cancer cell survival and abnormal growth, induction of apoptotic signaling pathways is a crucial mechanism in targeted cancer therapy. To further explore the link between apoptosis rates and VIIb treatment, the pro-apoptotic activity of this novel compound was investigated by flow cytometry using both Annexin V (V) and propidium iodide (PI) dyes. A distinctive feature of early apoptosis is phosphatidylserine transfer toward the cellular surface. Thus, phosphatidylserine can be detected by fluorochrome-tagged anticoagulant protein V. Therefore, the viable cells remained unstained (V^−/PI^−).
Control untreated and MCF-7 cells treated with compound VIIb at its IC50 (µM) for 48 h were subjected to apoptotic analysis using Annexin V (V) and propidium iodide (PI) fluorescent dyes.
as §1

[6] = MCF-7, with respect to control cells

T1 sequence (P42336 whole entry, canonical isoform): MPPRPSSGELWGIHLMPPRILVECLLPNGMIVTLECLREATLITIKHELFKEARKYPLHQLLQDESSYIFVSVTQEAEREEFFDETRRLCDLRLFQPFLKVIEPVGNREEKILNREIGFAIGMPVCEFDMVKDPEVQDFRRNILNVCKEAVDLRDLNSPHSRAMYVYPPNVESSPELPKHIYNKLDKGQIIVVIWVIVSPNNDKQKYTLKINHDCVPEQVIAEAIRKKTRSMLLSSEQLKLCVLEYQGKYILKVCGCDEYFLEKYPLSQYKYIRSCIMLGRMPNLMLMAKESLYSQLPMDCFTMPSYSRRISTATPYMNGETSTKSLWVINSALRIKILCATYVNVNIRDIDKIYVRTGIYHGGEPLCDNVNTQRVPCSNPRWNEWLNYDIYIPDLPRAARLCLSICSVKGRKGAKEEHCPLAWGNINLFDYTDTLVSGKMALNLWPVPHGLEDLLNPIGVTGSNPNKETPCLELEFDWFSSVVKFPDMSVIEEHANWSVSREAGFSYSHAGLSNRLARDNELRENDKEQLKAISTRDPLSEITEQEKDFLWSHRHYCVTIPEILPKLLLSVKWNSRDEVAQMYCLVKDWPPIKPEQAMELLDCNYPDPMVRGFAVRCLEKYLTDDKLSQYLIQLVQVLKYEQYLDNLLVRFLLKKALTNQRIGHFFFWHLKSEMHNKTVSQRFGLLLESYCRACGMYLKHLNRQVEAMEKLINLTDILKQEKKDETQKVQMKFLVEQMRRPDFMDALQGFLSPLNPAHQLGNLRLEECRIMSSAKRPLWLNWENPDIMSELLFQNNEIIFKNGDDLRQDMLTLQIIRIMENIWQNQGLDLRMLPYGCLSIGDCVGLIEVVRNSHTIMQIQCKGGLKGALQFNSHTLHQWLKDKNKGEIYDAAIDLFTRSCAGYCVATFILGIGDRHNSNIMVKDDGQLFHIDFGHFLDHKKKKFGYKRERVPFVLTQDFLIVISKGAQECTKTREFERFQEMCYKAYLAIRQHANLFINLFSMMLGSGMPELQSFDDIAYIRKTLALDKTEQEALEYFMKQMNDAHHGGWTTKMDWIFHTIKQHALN
T1 sequence (P27986 whole entry partner, canonical isoform): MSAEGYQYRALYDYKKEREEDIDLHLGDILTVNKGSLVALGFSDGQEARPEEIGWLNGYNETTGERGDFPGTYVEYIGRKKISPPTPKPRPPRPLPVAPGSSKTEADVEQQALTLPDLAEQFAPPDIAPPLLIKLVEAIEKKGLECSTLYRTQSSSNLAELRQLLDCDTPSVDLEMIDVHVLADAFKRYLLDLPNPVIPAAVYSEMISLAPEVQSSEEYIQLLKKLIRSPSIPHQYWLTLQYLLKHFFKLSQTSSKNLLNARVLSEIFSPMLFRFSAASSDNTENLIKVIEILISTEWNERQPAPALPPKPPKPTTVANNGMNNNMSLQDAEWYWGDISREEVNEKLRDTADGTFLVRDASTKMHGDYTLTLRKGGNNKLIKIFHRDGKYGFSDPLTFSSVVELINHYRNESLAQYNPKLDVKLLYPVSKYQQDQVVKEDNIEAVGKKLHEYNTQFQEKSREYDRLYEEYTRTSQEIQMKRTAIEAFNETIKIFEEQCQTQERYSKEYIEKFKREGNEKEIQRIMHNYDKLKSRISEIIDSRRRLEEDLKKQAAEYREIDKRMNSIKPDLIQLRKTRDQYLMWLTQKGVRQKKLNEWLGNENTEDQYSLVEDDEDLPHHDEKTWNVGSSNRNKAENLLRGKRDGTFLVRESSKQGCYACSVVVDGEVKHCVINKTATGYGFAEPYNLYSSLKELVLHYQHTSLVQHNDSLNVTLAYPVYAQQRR

SMILES: C/C(=N/N=C1/SCC(=O)N1C(=O)c1ccccc1)c1c(O)ccc2c(C)cc(=O)oc12 [VIIb]
- level of Cyclin D1 [1]: effectively suppressed
- level of p-Akt [1]: effectively suppressed
- level of p-PI3K [1]: effectively suppressed
- IC50 [2]: 1.03 ± 0.05 µM
- DNA Content % Pre G1 ([3]; control 1.55): 35.25%
- DNA Content % G2/M ([3]; control 9.71): 5.59%
- DNA Content % S ([3]; control 36.58): 46.02%
- DNA Content % G0/G1 ([3]; control 53.71): 48.39%
- IC50 [4]: 3.7 ± 0.19 µM
- Apoptosis % Late (V+/PI+) ([5]; MCF-7, treated at IC50, 48 h, control 0.17): 21.05%
- Apoptosis % Early (V+/PI−) ([5]; MCF-7, treated at IC50, 48 h, control 0.48): 2.51%
- Necrosis% ([5]; MCF-7, treated at IC50, 48 h, control 0.90): 11.69%
- Apoptosis % Total ([5]; MCF-7, treated at IC50, 48 h, control 1.55): 35.25%
- fold increase in early apoptotic cells [5, 6]: 5 fold
- fold increase in late apoptotic cells [5, 6]: 100 fold
